This note sets out measurements from US20260116920A1, “HUMAN TRANSFERRIN RECEPTOR BINDING PEPTIDE” (PEPTIDREAM INC., priority 2021, published 2026).

This assay has as its target T1, human transferrin receptor (hTfR) (Homo sapiens, UniProt P02786).
T1 construct: made in house
In words: Evaluation of molecular interaction between transferrin receptor (hTfR) and peptide using surface plasmon resonance (SPR). It counts as binding. The note with it: surface plasmon resonance, binding to hTfR; KD class symbol; read-out: SPR (KD value). In outline:
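Binding kinetics of peptides to immobilized recombinant human TfR dimer were measured by SPR at 5–100 nM in a single-cycle format, with KD obtained from curve fitting.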

Positions of bridges follow the written chain, without caps; N, C: chain ends. Non-standard residues stand in square brackets, D forms with d. Residues, ends and D or L forms follow the SMILES beside them. *: point of attachment. Phe(3-COOH) = N[C@@H](Cc1cccc(C(=O)O)c1)C(=O)O; NH(CH2CH2O)8Me = COCCOCCOCCOCCOCCOCCOCCOCCN*; NMePhe(3-Cl) = CN[C@@H](Cc1cccc(Cl)c1)C(=O)O; 3Pal(6-NH2) = Nc1ccc(C[C@H](N)C(=O)O)cn1; NMeY = CN[C@@H](Cc1ccc(O)cc1)C(=O)O; 3Pal = N[C@@H](Cc1cccnc1)C(=O)O; 4Pal = N[C@@H](Cc1ccncc1)C(=O)O; PEG4 = NCCOCCOCCOCCOCCC(=O)O; Carboxymethyl = O=C(O)C*

T1 sequence (P02786 89-760 limits assumed): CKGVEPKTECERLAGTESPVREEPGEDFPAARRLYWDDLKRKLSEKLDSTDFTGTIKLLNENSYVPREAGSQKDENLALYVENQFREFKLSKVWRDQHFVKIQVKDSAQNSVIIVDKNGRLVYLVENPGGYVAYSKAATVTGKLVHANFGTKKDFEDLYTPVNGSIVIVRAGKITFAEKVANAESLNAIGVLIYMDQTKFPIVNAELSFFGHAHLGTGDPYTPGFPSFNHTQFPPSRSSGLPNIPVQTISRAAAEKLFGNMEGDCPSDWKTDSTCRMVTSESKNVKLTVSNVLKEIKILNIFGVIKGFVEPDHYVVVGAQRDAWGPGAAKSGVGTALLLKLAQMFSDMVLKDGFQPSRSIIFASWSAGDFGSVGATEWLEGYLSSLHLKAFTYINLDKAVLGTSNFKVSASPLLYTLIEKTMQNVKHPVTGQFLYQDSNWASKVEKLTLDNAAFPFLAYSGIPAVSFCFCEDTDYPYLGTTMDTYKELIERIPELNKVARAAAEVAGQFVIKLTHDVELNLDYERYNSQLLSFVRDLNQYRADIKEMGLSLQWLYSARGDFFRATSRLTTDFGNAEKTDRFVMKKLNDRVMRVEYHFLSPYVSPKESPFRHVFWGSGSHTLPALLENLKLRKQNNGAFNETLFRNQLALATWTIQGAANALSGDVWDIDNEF

Turning to `CC[C@H](C)[C@@H]1NC(=O)[C@H](Cc2cccnc2)NC(=O)[C@H](Cc2ccc(N)nc2)NC(=O)[C@H](CC(N)=O)NC(=O)[C@H](Cc2c[nH]c3ccccc23)NC(=O)[C@H](C(C)C)NC(=O)[C@H](Cc2cccc(Cl)c2)N(C)C(=O)[C@H](C(C)C)NC(=O)[C@H](C)NC(=O)CSC[C@@H](C(=O)NCCOCCOCCOCCOCCC(N)=O)NC(=O)[C@H](Cc2ccc(O)cc2)N(C)C(=O)[C@H](Cc2ccncc2)NC(=O)[C@H](CCC(=O)NCCOCCOCCOCCOCCOCCOCCOCCOC)NC(=O)[C@H](CCCNC(=N)N)NC(=O)[C@H]([C@@H](C)CC)NC1=O` [compound 98] ({CH2CO}-AV[NMePhe(3-Cl)]VWN[3Pal(6-NH2)][3Pal]IIRE(NH(CH2CH2O)8Me)[4Pal][NMeY]C[PEG4]-NH2; thioether N-15), the Kd was 1 to 100 nM.

With `CC[C@H](C)[C@@H]1NC(=O)[C@H](Cc2ccc(OCC(=O)O)cc2)NC(=O)[C@H](Cc2ccc(N)nc2)NC(=O)[C@H](CC(N)=O)NC(=O)[C@H](Cc2c[nH]c3ccccc23)NC(=O)[C@H](C(C)C)NC(=O)[C@H](Cc2cccc(Cl)c2)N(C)C(=O)[C@H](C(C)C)NC(=O)[C@H](C)NC(=O)CSC[C@@H](C(=O)NCCOCCOCCOCCOCCC(N)=O)NC(=O)[C@H](Cc2ccc(O)cc2)N(C)C(=O)[C@H](Cc2cccc(C(=O)O)c2)NC(=O)[C@H](CCC(=O)NCCOCCOCCOCCOCCOCCOCCOCCOC)NC(=O)[C@H](CCCNC(=N)N)NC(=O)[C@H]([C@@H](C)CC)NC1=O` [compound 99] ({CH2CO}-AV[NMePhe(3-Cl)]VWN[3Pal(6-NH2)]Y(Carboxymethyl)IIRE(NH(CH2CH2O)8Me)[Phe(3-COOH)][NMeY]C[PEG4]-NH2; thioether N-15), the Kd lay within 1 to 100 nM.

Turning to `CC[C@H](C)[C@@H]1NC(=O)[C@H](Cc2ccc(OCC(=O)O)cc2)NC(=O)[C@H](Cc2ccc(N)nc2)NC(=O)[C@H](CC(N)=O)NC(=O)[C@H](Cc2c[nH]c3ccccc23)NC(=O)[C@H](C(C)C)NC(=O)[C@H](Cc2cccc(Cl)c2)N(C)C(=O)[C@H](C(C)C)NC(=O)[C@H](C)NC(=O)CSC[C@@H](C(=O)NCCOCCOCCOCCOCCC(N)=O)NC(=O)[C@H](Cc2ccc(O)cc2)N(C)C(=O)[C@H](Cc2ccncc2)NC(=O)[C@H](CCC(=O)NCCOCCOCCOCCOCCOCCOCCOCCOC)NC(=O)[C@H](CCCNC(=N)N)NC(=O)[C@H]([C@@H](C)CC)NC1=O` [compound 100] ({CH2CO}-AV[NMePhe(3-Cl)]VWN[3Pal(6-NH2)]Y(Carboxymethyl)IIRE(NH(CH2CH2O)8Me)[4Pal][NMeY]C[PEG4]-NH2; thioether N-15), the Kd lay in the range of 1 to 100 nM.

Take `CC[C@H](C)[C@@H]1NC(=O)[C@H](Cc2ccc(OCC(=O)O)cc2)NC(=O)[C@H](Cc2ccc(O)cc2)NC(=O)[C@H](CC(N)=O)NC(=O)[C@H](Cc2cn(CC(=O)O)c3ccccc23)NC(=O)[C@H](C(C)C)NC(=O)[C@H](Cc2cccc(Cl)c2)N(C)C(=O)[C@H](C(C)C)NC(=O)[C@H](C)NC(=O)CSC[C@@H](C(=O)NCCOCCOCCOCCOCCC(N)=O)NC(=O)[C@H](Cc2ccc(O)cc2)N(C)C(=O)[C@H](Cc2ccccc2)NC(=O)[C@H](CCCNC(=N)N)NC(=O)[C@H](CCC(=O)NCCOCCOCCOCCOCCOCCOCCOCCOC)NC(=O)[C@H]([C@@H](C)CC)NC1=O` [compound 101]: the Kd was 1 to 100 nM.

In the case of `CC[C@H](C)[C@@H]1NC(=O)[C@H](Cc2ccc(OCC(=O)O)cc2)NC(=O)[C@H](Cc2ccc(O)cc2)NC(=O)[C@H](CC(N)=O)NC(=O)[C@H](Cc2cn(CC(=O)O)c3ccccc23)NC(=O)[C@H](C(C)C)NC(=O)[C@H](Cc2cccc(Cl)c2)N(C)C(=O)[C@H](C(C)C)NC(=O)[C@H](C)NC(=O)CSC[C@@H](C(=O)NCCOCCOCCOCCOCCC(N)=O)NC(=O)[C@H](Cc2ccc(O)cc2)N(C)C(=O)[C@H](Cc2ccccc2)NC(=O)[C@H](CCC(=O)NCCOCCOCCOCCOCCOCCOCCOCCOC)NC(=O)[C@H](CCCNC(=N)N)NC(=O)[C@H]([C@@H](C)CC)NC1=O` [compound 102], the Kd fell in the range of 1 to 100 nM.

With `CC[C@H](C)[C@@H]1NC(=O)[C@H](Cc2ccc(OCC(=O)O)cc2)NC(=O)[C@H](Cc2ccc(O)cc2)NC(=O)[C@H](CC(N)=O)NC(=O)[C@H](Cc2cn(CC(=O)O)c3ccccc23)NC(=O)[C@H](C(C)C)NC(=O)[C@H](Cc2cccc(Cl)c2)N(C)C(=O)[C@H](C(C)C)NC(=O)[C@H](C)NC(=O)CSC[C@@H](C(=O)NCCOCCOCCOCCOCCC(N)=O)NC(=O)[C@H](Cc2ccc(O)cc2)N(C)C(=O)[C@H](Cc2cccc(C(=O)O)c2)NC(=O)[C@H](CCCNC(=N)N)NC(=O)[C@H](CCC(=O)NCCOCCOCCOCCOCCOCCOCCOCCOC)NC(=O)[C@H]([C@@H](C)CC)NC1=O` [compound 103], the Kd was 1 to 100 nM.

For the molecule `CC[C@H](C)[C@@H]1NC(=O)[C@H](Cc2ccc(OCC(=O)O)cc2)NC(=O)[C@H](Cc2ccc(O)cc2)NC(=O)[C@H](CC(N)=O)NC(=O)[C@H](Cc2cn(CC(=O)O)c3ccccc23)NC(=O)[C@H](C(C)C)NC(=O)[C@H](Cc2cccc(Cl)c2)N(C)C(=O)[C@H](C(C)C)NC(=O)[C@H](C)NC(=O)CSC[C@@H](C(=O)NCCOCCOCCOCCOCCC(N)=O)NC(=O)[C@H](Cc2ccc(O)cc2)N(C)C(=O)[C@H](Cc2ccccc2)NC(=O)[C@H](CCCNC(=N)N)NC(=O)[C@H](CCC(N)=O)NC(=O)[C@H]([C@@H](C)CC)NC1=O` [compound 104], the Kd lay within 1 to 100 nM.

`CC[C@H](C)[C@@H]1NC(=O)[C@H](Cc2ccc(OCC(=O)O)cc2)NC(=O)[C@H](Cc2ccc(O)cc2)NC(=O)[C@H](CC(N)=O)NC(=O)[C@H](Cc2cn(CC(=O)O)c3ccccc23)NC(=O)[C@H](C(C)C)NC(=O)[C@H](Cc2cccc(Cl)c2)N(C)C(=O)[C@H](C(C)C)NC(=O)[C@H](C)NC(=O)CSC[C@@H](C(=O)NCCOCCOCCOCCOCCC(N)=O)NC(=O)[C@H](Cc2ccc(O)cc2)N(C)C(=O)[C@H](Cc2ccccc2)NC(=O)[C@H](CCC(N)=O)NC(=O)[C@H](CCCNC(=N)N)NC(=O)[C@H]([C@@H](C)CC)NC1=O` [compound 105]: the dissociation constant Kd fell in the range of 1 to 100 nM.

As to `CC[C@H](C)[C@@H]1NC(=O)[C@H](Cc2ccc(O)cc2)NC(=O)[C@H](Cc2ccc(O)cc2)NC(=O)[C@H](CC(N)=O)NC(=O)[C@H](Cc2c[nH]c3ccccc23)NC(=O)[C@H](C(C)C)NC(=O)[C@H](Cc2ccccc2)N(C)C(=O)[C@H](C(C)C)NC(=O)[C@H](C)NC(=O)CSC[C@@H](C(=O)NCC(=O)N[C@H](CCC(=O)O)C(=O)N[C@H](CCC(=O)O)C(=O)N[C@H](CCC(=O)O)C(=O)N[C@H](CCC(=O)O)C(=O)N[C@H](CCC(=O)O)C(=O)N[C@@H](CSCC(=O)NC)C(N)=O)NC(=O)[C@H](Cc2ccc(O)cc2)N(C)C(=O)[C@H](Cc2ccc(O)cc2)NC(=O)[C@H](CCCNC(=N)N)NC(=O)[C@H](CCCNC(=N)N)NC(=O)[C@H]([C@@H](C)CC)NC1=O` [compound 107], the Kd was 1 to 100 nM.

Take `CC[C@H](C)[C@@H]1NC(=O)[C@H](Cc2ccc(OC)cc2)NC(=O)[C@H](Cc2ccc(O)cc2)NC(=O)[C@H](CC(N)=O)NC(=O)[C@H](Cc2cn(CC(=O)O)c3ccccc23)NC(=O)[C@H](C(C)C)NC(=O)[C@H](Cc2cccc(Cl)c2)N(C)C(=O)[C@H](C(C)C)NC(=O)[C@H](C)NC(=O)CSC[C@@H](C(=O)NCCOCCOCCOCCOCCC(N)=O)NC(=O)[C@H](Cc2ccc(O)cc2)N(C)C(=O)[C@H](Cc2ccccc2)NC(=O)[C@H](CCCNC(=N)N)NC(=O)[C@H](CCCNC(=N)N)NC(=O)[C@H]([C@@H](C)CC)NC1=O` [compound 108]: the dissociation constant Kd is less than 1 nM.

Regarding `CC[C@H](C)[C@@H]1NC(=O)[C@H](Cc2ccc(OCC(=O)O)cc2)NC(=O)[C@H](Cc2ccc(O)cc2)NC(=O)[C@H](CC(N)=O)NC(=O)[C@H](Cc2c[nH]c3ccccc23)NC(=O)[C@H](C(C)C)NC(=O)[C@H](Cc2cccc(Cl)c2)N(C)C(=O)[C@H](C(C)C)NC(=O)[C@H](C)NC(=O)CSC[C@@H](C(=O)NCCOCCOCCOCCOCCC(N)=O)NC(=O)[C@H](Cc2ccc(O)cc2)N(C)C(=O)[C@H](Cc2ccccc2)NC(=O)[C@H](CCCNC(=N)N)NC(=O)[C@H](CCCNC(=N)N)NC(=O)[C@H]([C@@H](C)CC)NC1=O` [compound 109], the dissociation constant Kd is less than 1 nM.

Consider `CC[C@H](C)[C@@H]1NC(=O)[C@H](Cc2ccc(OCC(=O)O)cc2)NC(=O)[C@H](Cc2ccc(O)cc2)NC(=O)[C@H](CC(N)=O)NC(=O)[C@H](Cc2cn(CC(=O)O)c3ccccc23)NC(=O)[C@H](C(C)C)NC(=O)[C@H](Cc2cccc(Cl)c2)N(C)C(=O)[C@H](C(C)C)NC(=O)[C@H](C)NC(=O)CSC[C@@H](C(=O)NCCOCCOCCOCCOCCC(N)=O)NC(=O)[C@H](Cc2ccc(O)cc2)N(C)C(=O)[C@H](Cc2ccccc2)NC(=O)[C@H](CCCNC(=N)N)NC(=O)[C@H](CCC(=O)NCCOCCOCCOCCOC)NC(=O)[C@H]([C@@H](C)CC)NC1=O` [compound 110], for which the Kd lay in the range of 1 to 100 nM.

For the molecule `CC[C@H](C)[C@@H]1NC(=O)[C@H](Cc2ccc(OCC(=O)O)cc2)NC(=O)[C@H](Cc2ccc(O)cc2)NC(=O)[C@H](CC(N)=O)NC(=O)[C@H](Cc2cn(CC(=O)O)c3ccccc23)NC(=O)[C@H](C(C)C)NC(=O)[C@H](Cc2cccc(Cl)c2)N(C)C(=O)[C@H](C(C)C)NC(=O)[C@H](C)NC(=O)CSC[C@@H](C(=O)NCCOCCOCCOCCOCCC(N)=O)NC(=O)[C@H](Cc2ccc(O)cc2)N(C)C(=O)[C@H](Cc2ccccc2)NC(=O)[C@H](CCCNC(=N)N)NC(=O)[C@H](CCC(=O)NC(COC)COC)NC(=O)[C@H]([C@@H](C)CC)NC1=O` [compound 111], the equilibrium dissociation constant (Kd) was 1 to 100 nM.

In the case of `CC[C@H](C)[C@@H]1NC(=O)[C@H](Cc2ccc(OCC(=O)O)cc2)NC(=O)[C@H](Cc2ccc(O)cc2)NC(=O)[C@H](CC(N)=O)NC(=O)[C@H](Cc2c[nH]c3ccccc23)NC(=O)[C@H](C(C)C)NC(=O)[C@H](Cc2cccc(Cl)c2)N(C)C(=O)[C@H](C(C)C)NC(=O)[C@H](C)NC(=O)CSC[C@@H](C(=O)NCCOCCOCCOCCOCCC(N)=O)NC(=O)[C@H](Cc2ccc(O)cc2)N(C)C(=O)[C@H](Cc2ccccc2)NC(=O)[C@H](CCCNC(=N)N)NC(=O)[C@H](CCC(=O)NCCOCCOCCOCCOCCOCCOCCOCCOC)NC(=O)[C@H]([C@@H](C)CC)NC1=O` [compound 112], the Kd was less than 1 nM.

By Kd is commonly meant the concentration at which binding is half-saturated.
